We go through 40 compounds from patent publication US12281102B2, “Inhibitors of APOL1 and methods of using same” (Vertex Pharmaceuticals Incorporated, priority 2020, dated 2025).

The target in this assay is T1, G1 APOL1 (Homo sapiens, UniProt O14791, I384M/S342G).
T1 construct: expressed in transfected cells
T1 sequence (O14791 28-398 S342G/I384M): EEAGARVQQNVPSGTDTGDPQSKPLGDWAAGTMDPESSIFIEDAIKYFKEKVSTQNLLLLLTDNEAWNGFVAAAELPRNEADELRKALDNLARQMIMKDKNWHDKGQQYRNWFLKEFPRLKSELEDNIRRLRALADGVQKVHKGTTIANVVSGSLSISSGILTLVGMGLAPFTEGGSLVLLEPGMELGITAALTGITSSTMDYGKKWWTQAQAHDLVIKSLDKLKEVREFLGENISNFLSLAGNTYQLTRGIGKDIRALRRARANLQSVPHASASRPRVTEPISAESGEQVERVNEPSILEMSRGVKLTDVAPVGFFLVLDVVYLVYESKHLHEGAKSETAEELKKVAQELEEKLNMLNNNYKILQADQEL
As to the kind of experiment: Acute APOL1 Thallium Assay with inducible stable clones of HEK 293 cells. Type of assay: cell-based. Conditions: HEK 293 T-Rex inducible stable clone expressing G1 APOL1; read-out: Thallium Assay (IC50). An excerpt: Acute APOL1 Thallium Assay with Inducible Stable Clones of HEK 293 Cells
Apolipoprotein L1 (APOL1) proteins form potassium-permeable cation pores in the plasma membrane. APOL1 risk variants (G1 and G2) induce greater potassium flux than G0 in HEK293 cells. This assay exploits the permeability of thallium (T1+) through ligand-gated potassium channels. The dye produces a bright fluorescent signal upon binding to T1+ conducted through potassium channels. The intensity of the T1+ signal is proportional to the number of potassium channels in the open state. Therefore, it provides a functional indication of the potassium channel activities. During the initial dye-loading step, the T1+ indicator dye as an acetoxymethyl (AM) ester enters the cells through passive diffusion. Cytoplasm esterases cleave the AM ester and relieve its active thallium-sensitive form. The cells are then stimulated with T1+. The increase of fluorescence in the assay represents the influx of T1+ into the cell specifically through the potassium channel (i.e. through APOL1 pores), providing a functional measurement of potassium channel/pore activity. The Thallium assay is conducted with cells expressing G1 APOL1.
APOL1 Cell Line (HEK T-Rex Stable Inducible Cell Line)
• HEK T-Rex System • Tetracycline (Tet) inducible mammalian expression system. • Stably express the Tet repressor to regulate transcription. • Expression under the full-length CMV promoter. • APOL1 stable inducible cell line Clone used: G1 DC3.25 Tissue Culture Media Cell Culture Medium • DMEM+10% FBS+P/S+5 μg/mL blasticidin+1 μg/mL puromycin. • 500 mL DMEM+55 mL FBS+5 mL P/S+280 μL blasticidin S HCl (10 mg/mL)+56 μL puromycin (10 mg/mL). Cell Assay Medium • DMEM with 2% FBS+penicillin streptomycin. Reagents:
Instruments and Equipment • Nuaire cell culture hood, Cat. No. 540-600 • 37° C./5% CO2 incubator link to robotic arm, Liconic: STX110 • Molecular Devices FLIPR^Tetra High throughput cellular screening system, Cat. No. FT0324, Molecular Devices • ThermoFisher MultiDrop 384, Cat. No. 5840300 • Biotek Microfill, Cat. No. ASF1000A-4145 • BioRad TC10 cell counter, Cat. No. 145-0010 Assay Procedures Cells Scaled Up from Frozen Vials • APOL1 G1 3.25 (HEK293 T-Rex) frozen vials: 5 million cells per vial • Step 1, Day 1: Defrost frozen vial into T-225. • Step 2, Day 5: (when 85% confluent): Split one T-225 at 3×10^6 cells per flask. • Step 3, Day 8: Splits cells to set up for the assay plates as described below. Cell Culture
T-Rex APOL1 HEK cells are split twice per week to keep the confluence state below 85% of the culture flask surface area. Cells can be kept until passage 25.
• DMEM high glucose+10% FBS, +P/S, +5 μg/mL blasticidin, +1 μg/mL puromycin. • 500 mL DMEM, +55 mL FBS, +5 mL P/S, +280 μL blasticidin 10 mg/mL, +56 μL Puromycin 10 mg/mL. Assay Media • Opti-MEM reduced serum medium from Invitrogen. Day 1 Preparation of Cell Assay Plates • Culture medium is removed from the x cm^2 T-flask by aspiration. • The cell monolayer is rinsed with PBS 1× at room temperature. PBS is removed by aspiration. • Cells are trypsinized using Trypsin. • The flasks are incubated at room temperature for 2-3 minutes. • Complete DMEM medium is then added. Cell suspension is then transferred to a 50 mL Falcon polypropylene tube. • Cells are then counted using a BioRad TC10 cell counter and the required amount of cells are centrifuged at 1200 RPM for 5 minutes. Required amount is 1.3×10^6 cells/mL APOL1 T-Rex HEK cells. • The pellet is suspended in the assay medium. • Using the MultiDrop, add 20 μL to each well (corresponds to 26000 cells total per well) of a 384-well black, transparent, flat bottom Poly-D coated plate. • Tetracycline as prepared in the following section is added to the cells before plating to induce APOL1 expression. • Plates are left at room temperature for 20 to 30 minutes before incubation at 37° C. and 5% CO2. […]

In general, IC50 refers to the concentration that inhibits the measured activity by half. Regarding `NC(=O)CNS(=O)(=O)NC[C@H]1C[C@H](c2c(-c3ccc(F)cc3)[nH]c3c(F)cc(F)cc32)C1` [Compound 341], the concentration for half-maximal inhibition (IC50) fell in the range of 0.25 to 1 µM. The result for `O=C(N[C@H]1C[C@@H](c2c(-c3ccc(F)cc3)[nH]c3c(F)cc(F)cc32)C1)c1cn[nH]c1` [Compound 73] reads 0.25 to 1 µM; that for `O=C(CC1CS(=O)(=O)C1)NC[C@H]1C[C@H](c2c(-c3ccc(F)cc3)[nH]c3c(F)cc(F)cc32)C1` [Compound 261], more than 1 µM; that for `OCC1(NCC2CC(c3c(-c4ccc(F)cc4)[nH]c4c(F)cc(F)cc34)C2)CC1` (stereo not shown) [Compound 397], more than 1 µM. `O=C(CC1CC(F)(F)C1)N[C@H]1C[C@H](c2c(-c3ccc(F)cc3)[nH]c3c(F)cc(F)cc32)C1` [Compound 98]: the 50% inhibitory concentration (IC50) was more than 1 µM. For the compound `NCC(O)CNCC1CC(c2c(-c3ccc(F)cc3)[nH]c3c(F)cc(F)cc23)C1` (stereo not shown) [Compound 403], the half-maximal inhibitory concentration (IC50) is more than 1 µM. For the compound `O=C(NC[C@H]1C[C@@H](c2c(-c3ccc(F)cc3)[nH]c3c(F)cc(F)cc32)C1)c1nc[nH]n1` [Compound 302], the IC50 is more than 1 µM. Consider `O=C(NC[C@H]1C[C@H](c2c(-c3ccc(F)cc3)[nH]c3c(F)cc(F)cc32)C1)C1(O)CC1` [Compound 283], for which the IC50 was more than 1 µM.

As to `Fc1ccc(-c2[nH]c3c(F)cc(F)cc3c2CC2CNC2)cc1` [Compound 436, 3-(azetidin-3-ylmethyl)-5,7-difluoro-2-(4-fluorophenyl)-1H-indole], the half-inhibitory concentration (IC50) is less than 0.25 µM. In the case of `Fc1ccc(-c2[nH]c3c(F)cc(F)cc3c2C2CC(CNCC3COC3)C2)cc1` (stereo not shown) [Compound 405], the IC50 is more than 1 µM. With `O=C1CC(C(=O)N[C@H]2C[C@H](c3c(-c4ccc(F)cc4)[nH]c4c(F)cc(F)cc43)C2)CN1` (stereo partly shown) [Compound 140] the figure was more than 1 µM. With `CNC(=O)c1noc(CNS(=O)(=O)NC[C@H]2C[C@H](c3c(-c4ccc(F)cc4)[nH]c4c(F)cc(F)cc43)C2)n1` [Compound 337] the figure was 0.25 to 1 µM; with `O=C1NCC[C@H]1NS(=O)(=O)NC[C@H]1C[C@H](c2c(-c3ccc(F)cc3)[nH]c3c(F)cc(F)cc32)C1` [Compound 332, (3R)-3-[[3-[5,7-difluoro-2-(4-fluorophenyl)-1H-indol-3-yl]cyclobutyl]methylsulfamoylamino]pyrrolidin-2-one], more than 1 µM. With `O=C(Cn1cnnc1)N[C@H]1C[C@H](c2c(-c3ccc(F)cc3)[nH]c3c(F)cc(F)cc32)C1` [Compound 139] the figure was more than 1 µM. Take `CC[C@H](N)C(=O)NC[C@H]1C[C@H](c2c(-c3ccc(F)cc3)[nH]c3c(F)cc(F)cc32)C1` [Compound 197]: the half-inhibitory concentration (IC50) is less than 0.25 µM.

As to `CC(=O)NS(=O)(=O)NC[C@H]1C[C@H](c2c(-c3ccc(F)cc3)[nH]c3c(F)cc(F)cc32)C1` [Compound 371], the IC50 fell in the range of 0.25 to 1 µM. On to `O=C(N[C@H]1C[C@H](c2c(-c3ccc(F)cc3)[nH]c3c(F)cc(F)cc32)C1)C(O)CO` (stereo partly shown) [Compound 96], for which the IC50 lay in the range of 0.25 to 1 µM. Regarding `O=C(N[C@H]1C[C@@H](c2c(-c3ccc(F)cc3)[nH]c3c(F)cc(F)cc32)C1)C1COC1` [Compound 71], the 50% inhibitory concentration (IC50) was 0.25 to 1 µM. For the compound `O=C1CC(CNS(=O)(=O)NC[C@H]2C[C@H](c3c(-c4ccc(F)cc4)[nH]c4c(F)cc(F)cc43)C2)CN1` (stereo partly shown) [Compound 368], the IC50 was 0.25 to 1 µM. The result for `CCS(=O)(=O)NCC(=O)N[C@H]1C[C@@H](c2c(-c3ccc(F)cc3)[nH]c3c(F)cc(F)cc32)C1` [Compound 43] reads more than 1 µM.

As to `O=S(=O)(NC[C@H]1C[C@H](c2c(-c3ccc(F)cc3)[nH]c3c(F)cc(F)cc32)C1)c1cn[nH]c1` [Compound 416], the half-inhibitory concentration (IC50) is more than 1 µM. Take `O=C(CCO)N1CC(Cc2c(-c3ccc(F)cc3)[nH]c3c(F)cc(F)cc23)C1` [Compound 439]: the IC50 is less than 0.25 µM. Take `O=C(NC[C@H]1C[C@H](c2c(-c3ccc(F)cc3)[nH]c3c(F)cc(F)cc32)C1)[C@H]1NCC[C@@H]1O` [Compound 222]: the 50% inhibitory concentration (IC50) fell in the range of 0.25 to 1 µM.

On to `C[C@H](O)C(=O)NC1CC(Cc2c(-c3ccc(F)cc3)[nH]c3c(F)cc(F)cc23)C1` (stereo partly shown) [Compound 161], for which the IC50 is 0.25 to 1 µM. As for `Cn1ccc(CC(=O)N[C@H]2C[C@@H](c3c(-c4ccc(F)cc4)[nH]c4c(F)cc(F)cc43)C2)n1` [Compound 41], the IC50 was more than 1 µM. As for `NC(=O)CC(=O)NC[C@H]1C[C@@H](c2c(-c3ccc(F)cc3)[nH]c3c(F)cc(F)cc32)C1` [Compound 243], the 50% inhibitory concentration (IC50) is more than 1 µM. With `O=S(=O)(NC[C@@H](O)CO)NC[C@H]1C[C@H](c2c(-c3ccc(F)cc3)[nH]c3c(F)cc(F)cc32)C1` [Compound 352] the figure was more than 1 µM; with `O=C1CC(CC(=O)N[C@H]2C[C@@H](c3c(-c4ccc(F)cc4)[nH]c4c(F)cc(F)cc43)C2)CC(=O)N1` [Compound 72], more than 1 µM.

Turning to `CN1CCCC(CC(=O)N[C@H]2C[C@@H](c3c(-c4ccc(F)cc4)[nH]c4c(F)cc(F)cc43)C2)C1` (stereo partly shown) [Compound 39], the 50% inhibitory concentration (IC50) was more than 1 µM. Take `CC(C)(C)OC(=O)N[C@@H](CO)C(=O)NC[C@H]1C[C@H](c2c(-c3ccc(F)cc3)[nH]c3c(F)cc(F)cc32)C1` [Compound 193]: the IC50 is less than 0.25 µM.

Regarding `CC[C@H](NC(=O)OC(C)(C)C)C(=O)NC[C@H]1C[C@H](c2c(-c3ccc(F)cc3)[nH]c3c(F)cc(F)cc32)C1` [Compound 258], the half-maximal inhibitory concentration (IC50) is more than 1 µM. With `O=C(CC1CC(=O)NC(=O)C1)NC[C@H]1C[C@@H](c2c(-c3ccc(F)cc3)[nH]c3c(F)cc(F)cc32)C1` [Compound 285] the figure was more than 1 µM. As to `O=C1CC(C(=O)NC[C@H]2C[C@H](c3c(-c4ccc(F)cc4)[nH]c4c(F)cc(F)cc43)C2)CN1` (stereo partly shown) [Compound 273], the half-inhibitory concentration (IC50) was more than 1 µM.

In the case of `O=C(CCN1CCCCC1)N[C@H]1C[C@@H](c2c(-c3ccc(F)cc3)[nH]c3c(F)cc(F)cc32)C1` [Compound 61], the half-maximal inhibitory concentration (IC50) is more than 1 µM. Take `N#CCS(=O)(=O)N[C@H]1C[C@@H](c2c(-c3ccc(F)cc3)[nH]c3c(F)cc(F)cc32)C1` [Compound 87]: the IC50 was more than 1 µM. With `O=C(CO)NC[C@H]1C[C@H](c2c(-c3ccc(F)cc3)[nH]c3c(F)cc(F)cc32)C1` [Compound 203] the figure was less than 0.25 µM; with `Fc1ccc(-c2[nH]c3c(F)cc(F)cc3c2C2CC(CNC3COC3)C2)cc1` (stereo not shown) [Compound 380], 0.25 to 1 µM. For `CS(=O)(=O)CCC(=O)N[C@H]1C[C@@H](c2c(-c3ccc(F)cc3)[nH]c3c(F)cc(F)cc32)C1` [Compound 54], the IC50 is more than 1 µM. For `CC(C)(CO)NCC1CC(c2c(-c3ccc(F)cc3)[nH]c3c(F)cc(F)cc23)C1` (stereo not shown) [Compound 407], the IC50 is more than 1 µM. For `O=C(NC[C@H]1C[C@H](c2c(-c3ccc(F)cc3)[nH]c3c(F)cc(F)cc32)C1)[C@H]1CCN1` [Compound 245], the IC50 was more than 1 µM.
